Source: patent US20250129101A1, “Compound, Pharmaceutical Composition Comprising the Same and Method for Treating Cancer Using the Same” (NATIONAL TSING HUA UNIVERSITY, priority 2023, published 2025)
Read-outs that look alike come from different tables or passages of the source. Blank lines part the entries; values can stand above or below the compound they belong to.

Experiments:
KIF2B = molecular target: T1, KIF2B (Homo sapiens, UniProt Q8N4N8); experiment: In vitro kinesin assay, KIF2B; type: biochemical; settings: 50 μM (FIG. 4I)
T1 construct: KIF2B (171-553 a.a.); 6xHis (C); made in house; host or cells: E. coli BL21 (DE3), pET-28a
Experimental: (§1) In vitro kinesin activity was measured using malachite green-based phosphate colorimetric assay (BioVision). […] The microtubules from porcine brain tubulin (Cytoskeleton) or purified from HEK293 cells in Free-style medium (293Fs) were dissolved in the BRB80 buffer (80 mM PIPES pH 6.8, 1 mM EGTA, 1 mM MgCl2, 1 mM GTP, 1 mM DTT, and 10% DMSO) at 37° C. for 2 hr. Phosphates released from kinesin-mediated ATP hydrolysis was measured by adding 30 μL of the phosphate colorimetric reagent (BioVision), incubated for 10 min, and then measured with absorbance at 650 nm.
(§2) Constructs of sN+M regions of KIF2C (216-598 a.a.), KIF2A (181-562 a.a.) and KIF2B (171-553 a.a.) with C-terminal 6×His tag were subcloned into pET-28a vector and expressed in BL21 (DE3) E. coli cells (Novartis) cultured in Luria-Bertani medium supplemented with 50 ug/mL kanamycin at 37° C. After induction with 0.8 mM IPTG for 18 hr at 20° C., the cells were pelleted by centrifugation at 6000 rpm for 30 min at 10° C. The collected pellets were resuspended in 30 mL of buffer A (20 mM Tris-HCl pH 7.5, 500 mM NaCl, 10 mM imidazole, 1% CHAPS, and 1 mM PMSF) and next subjected to a high-pressure homogenizer (EmulsiFlex-C3) for cell lysis. After removing the cell debris by centrifugation at 13000 rpm for 30 min at 10° C., the recombinant Kinesin-13 in the supernatant was purified using nickel affinity chromatography. […]

MDA-MB-231 cells = experiment: Cell validation: cytotoxicity in MDA-MB-231 cells (CellTiter-Glo); type: cell-based
How it was run: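 MDA-MB-231 cells were seeded at 2000 cells/well and exposed to compounds for the specified number of days. Medium was then replaced with a 1:1 CellTiter-Glo reagent/serum-supplemented DMEM mix for 10 min, and viability was read as luminescence, proportional to living cell number.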

KIF2A = molecular target: T2, KIF2A (Homo sapiens, UniProt O00139); experiment: In vitro kinesin assay, KIF2A; type: biochemical; settings: 50 μM (FIG. 4I)
T2 construct: KIF2A (181-562 a.a.); 6xHis (C); made in house; host or cells: E. coli BL21 (DE3), pET-28a
Experimental: as §1, §2

4T1 cells [1] = experiment: Flow cytometry analysis of cell membrane penetration ability; type: cell-based, mouse; settings: 2 hr of drug treatment
Experimental: To quantify the cell membrane penetration ability of different DHTP analogs, 4T1 cells were collected by trypsin after 2 hr of drug treatment and then transferred into microcentrifuge tubes. 4T1 cells were then resuspended into the FACS buffer (1% FBS, 2 mM EDTA, and 0.05% NaN3 in PBS). After two times of FACS buffer rinsing, these samples were detected by flow cytometry (Cyto FLEX™ FLOW Cytometer). The KO525 (405 nm laser; 525 nm filter) channel was used to detect DHTP and 7S9.

[2] = tested on: MDA-MB-231 R, MDA-MB-231 S, 4T1 S1, R4, and R8 cells; experiment: Cell viability of indicated cell lines, DHTP or 7S9 for 72 hr; type: cell-based; settings: MDA-MB-231 R
Experimental: (§3) The cancer cells were cultured in a 96-well plate at a confluence of 1000-2000 cells/well with indicated drugs for specific days. When the time was up, the culture medium in the plate was aspirated and replaced with a prepared CellTiter-Glo reagent/DMEM mixture (1:1 mix of CellTiter-Glo reagent and serum-supplemented DMEM). After incubation for 10 min, the luminescence (proportional to the number of living cells) was measured with an ELISA plate reader to determine the cell viability.

KIF2C = molecular target: T3, KIF2C (Homo sapiens, UniProt Q99661); experiment: In vitro validation: KIF2C kinesin activity, malachite green-based phosphate colorimetric assay; type: biochemical
T3 construct: KIF2C (216-598 a.a.); 6xHis (C); made in house; host or cells: E. coli BL21 (DE3), pET-28a
How it was run: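 KIF2C sN+M construct (aa 216-598, C-terminal 6×His, E. coli-expressed) ATPase activity with microtubules from porcine brain tubulin or HEK293 (293Fs) cells in BRB80 (80 mM PIPES pH 6.8, 1 mM GTP, 10% DMSO), 37° C for 2 hr. Released phosphate detected by malachite green reagent, 10 min, A650.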

[3] = tested on: HeLa cells expressing H2B-mCherry and eGFP-tubulin; experiment: Live-cell imaging of intracellular microtubule distribution; type: cell-based
Experimental: For the microtubule distribution analysis, HeLa cell line stably expressing H2B-mCherry and eGFP-tubulin (a kind gift from Anthony A. Hyman, Max-Planck-Institute for Molecular Cell Biology and Genetics, Dresden, Germany) were treated with KIF2C inhibitors (10 μM DHTP or 10 μM 7S9) during imaging. Live-cell imaging was conducted on a Nikon T1 inverted fluorescence microscope (Nikon) with a 60× oil objective (Nikon), a Prime camera (Photometrics), and 37° C., 5% CO2 heat stage (Live Cell Instrument). Microtubule morphological changes were imaged at 3-min intervals. Images were obtained using ImageJ software processed with Gaussian Blur to remove the noise.

4T1 R4 = experiment: In vivo tumor growth inhibition, 4T1 R4 syngeneic model; parameters: species or system mouse; settings: R4 tumors, BALB/c mice, paclitaxel 15 mg/kg intraperitoneally, 5on/2off two cycles
Experimental: (§4) The mice were housed at the National Health Research Institute (NHRI) Animal Center in accordance with the Institutional Animal Care and Use Committee procedures and guidelines. The 4T1-derived cells, including 4T1, 4T1 R4, and 4T1 R8, used for implantation were harvested during log phase growth and resuspended in phosphate-buffered saline. Each mouse was injected s.c. in the right flank with 5×10^5 cells. After tumor size reached 60-100 mm 3 (D1), mice were divided into groups and received treatment with vehicle or different compounds alone or in combinations. Tumor size, in mm 3, was measured twice per week and calculated from Tumor volume=(w 2×1)/2, where w=width and 1=length in mm of the tumor. The values of tumor size were expressed as mean±SEM.

4T1 S1 cells [4] = experiment: Colony formation assay, 4T1 S1 cells; type: cell-based, mouse; settings: 400 nM paclitaxel
Experimental: To assess the long-term survival of breast cancer cell lines following the treatment of KIF2C knockdown or inhibition, the cells trypsinized into single-cell suspension were homogeneously seeded in 6-well cell culture plates at a density of 5000 cells per dish, supplemented with 2× complete medium (50% 4×DMEM, 20% FBS, 2% penicillin-streptomycin, ddH2O, and 2× glutaMAX™), agarose (0.6% for bottom agar layer; 0.3% for top cell layer), ddH2O, and DMEM. After incubation for 24 hr, cells were treated with indicated drugs, such as DMSO, KIF2C inhibitors, or chemotherapy drugs, and then cultured at 37° C. incubator in an atmosphere of humidified air with 5% CO2 for a further 14-30 days. When the cell colonies grew to appropriate sizes, the culture mediums were replaced with PBS for washing. After that, the plates were stained with 10% crystal violet and analyzed using Image J.

4T1 S1 cells [5] = experiment: Time-lapse imaging of mitotic progression, 4T1 S1 cells; type: cell-based, mouse; settings: paclitaxel (400 nM, FIG. 6D)
Experimental: To investigate the role of KIF2C in cell cycle progression, 4T1 cells were cultured in the 4-well chamber slide with about 50% confluence. The culture medium was replaced with a CO2-independent medium (Gibco) supplemented with 10% fetal bovine serum (Biological Industries) and 1% penicillin-streptomycin (Biowest). Then, each well of the chamber slide was treated with indicated drugs, such as DMSO, KIF2C inhibitors, or chemotherapy drugs. After that, the chamber slide was maintained in the microscope stage incubator with the supplement of humidified air with 5% CO2 at 37° C. Multiple-positional time-lapse imaging was performed using an automated Leica DM16000 inverted microscope equipped with HCX PL FL 20×/0.4 and EMCCD camera (Andor Luca R, Belfast, UK). Sequential differential interference contrast (DIC) images of cells obtained at indicated intervals were further analyzed using Metamorph software (Molecular Devices).

4T1 R8 cells = experiment: Cell viability assay, 4T1 R8 cells; type: cell-based, mouse
Experimental: (§5) MCF-7, MDA-MB-231, MDA-MB-468, Hs578T, 4T1, and HeLa cell lines stably expressing H2B-mCherry and eGFP-tubulin (kindly provided by Dr. Anthony A. Hyman, Max-Planck-Institute for Molecular Cell Biology and Genetics, Dresden, Germany) were cultured in high-glucose Dulbecco's Modified Eagle Medium (DMEM). SK-BR-3 cells were cultured in McCoy's Modified 5a Medium. Hs578T cells were cultured in high-glucose DMEM supplemented with an additional 0.01 mg/mL bovine insulin. […] All mentioned media were supplemented with 10% fetal bovine serum (Gibco) and 1% Penicillin/Streptomycin (Corning), and cells were incubated at 37° C. in a humidified atmosphere containing 5% CO2. HEK293 cells were cultured in HE300 medium (GMEP incorporated, Japan) and maintained in suspension culture with 125 rpm and 8% CO2.
as §3

MDA-MB-231 R = experiment: Cell viability assay, chemoresistant MDA-MB-231 R cells; type: cell-based; settings: MDA-MB-231 R versus S cells, 72 hr paclitaxel
Experimental: as §3
(§6) The expression levels of KIF2A, KIF2B, and KIF2C in these cell lines were compared using Western blotting.

4T1 R4 cells = experiment: Cell viability assay, 4T1 R4 cells; type: cell-based, mouse
Experimental: as §5, §3

4T1 cells [6] = experiment: In vivo tumor growth inhibition, 4T1 syngeneic model; parameters: species or system mouse; settings: 4T1 tumors, BALB/c mice, paclitaxel 5 mg/kg intraperitoneally, 5on/2off two cycles
Experimental: as §4

4T1 S1 cells [7] = experiment: Cell viability assay, 4T1 S1 cells; type: cell-based; settings: Mus musculus, 72 hr, read-out: IC50, single treatment
Experimental: as §5, §3

4T1 R cells = experiment: Cell viability assay, chemoresistant 4T1 R cells; type: cell-based, mouse; settings: 4T1 R versus S cells, 72 hr paclitaxel
Experimental: as §3, §6

[8] = 72 hr, MTA with 2 μM 7S9, read-out: IC50 (nM), Combination
[9] = Mus musculus, 72 hr, drug alone, read-out: IC50 (nM), Single
[10] = Mus musculus, read-out: Paclitaxel IC50 (nM), C4 combination, with 10 μM C4

T3 sequence (Q99661 216-598): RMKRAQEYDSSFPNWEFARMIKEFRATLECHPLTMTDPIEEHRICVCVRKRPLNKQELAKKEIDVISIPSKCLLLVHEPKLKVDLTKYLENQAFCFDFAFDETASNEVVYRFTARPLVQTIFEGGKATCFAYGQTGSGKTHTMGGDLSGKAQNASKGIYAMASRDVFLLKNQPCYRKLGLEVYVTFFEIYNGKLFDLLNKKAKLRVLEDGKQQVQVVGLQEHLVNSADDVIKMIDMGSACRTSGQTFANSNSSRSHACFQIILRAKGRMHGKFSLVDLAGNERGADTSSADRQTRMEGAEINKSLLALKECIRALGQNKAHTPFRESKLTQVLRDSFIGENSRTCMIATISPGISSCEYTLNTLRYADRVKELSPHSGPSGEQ
T1 sequence (Q8N4N8 171-553): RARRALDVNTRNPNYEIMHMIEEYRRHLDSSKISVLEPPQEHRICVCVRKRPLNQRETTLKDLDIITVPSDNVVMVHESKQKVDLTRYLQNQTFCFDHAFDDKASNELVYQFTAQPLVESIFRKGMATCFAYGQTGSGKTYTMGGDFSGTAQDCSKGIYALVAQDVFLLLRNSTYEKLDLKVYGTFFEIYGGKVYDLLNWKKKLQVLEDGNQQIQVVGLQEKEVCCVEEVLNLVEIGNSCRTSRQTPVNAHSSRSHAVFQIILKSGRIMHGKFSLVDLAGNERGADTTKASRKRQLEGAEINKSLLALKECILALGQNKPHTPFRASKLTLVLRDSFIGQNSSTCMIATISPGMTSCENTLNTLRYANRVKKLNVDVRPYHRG
T2 sequence (O00139 181-562): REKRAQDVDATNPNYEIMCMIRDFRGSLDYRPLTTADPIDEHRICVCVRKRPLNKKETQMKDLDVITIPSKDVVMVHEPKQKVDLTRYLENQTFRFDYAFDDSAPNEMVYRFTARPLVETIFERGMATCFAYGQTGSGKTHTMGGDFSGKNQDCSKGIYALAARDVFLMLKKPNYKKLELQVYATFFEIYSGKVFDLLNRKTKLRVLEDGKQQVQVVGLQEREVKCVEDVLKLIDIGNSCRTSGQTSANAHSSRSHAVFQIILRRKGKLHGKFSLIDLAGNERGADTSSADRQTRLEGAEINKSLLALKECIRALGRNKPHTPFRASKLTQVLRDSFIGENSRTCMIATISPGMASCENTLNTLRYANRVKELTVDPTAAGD

Structure (SMILES): CC1=C(C(=O)OC(C)C)C(c2ccc(Cl)cc2)n2c(s/c(=C\c3ccc(OCC(=O)O)cc3)c2=O)=N1 (stereo not drawn) [1S0 (1), reference compound]
- inhibitory effect against KIF2B (in words) (KIF2B): inhibited all three members of the kinesin-13 family
- cytotoxicity on MDA-MB-231 cells (in words) (MDA-MB-231 cells; 72 hr): not cytotoxic
- IC50 (MDA-MB-231 cells; Homo sapiens, cytotoxicity in MDA-MB-231 cells): > 50 µM
- inhibitory effect against KIF2A (in words) (KIF2A): inhibited all three members of the kinesin-13 family
- cell penetration, fluorescence signal at 510 nm emission (in words) (4T1 cells [1]): no fluorescence signals
- cytotoxicity (in words) [2]: not cytotoxic
- inhibitory effect against KIF2C (in words) (KIF2C; 50 μM (FIG. 4I)): inhibited all three members of the kinesin-13 family
- inhibition of KIF2C kinesin activity (in words) (KIF2C; 100 μM (FIG. 4B)): could inhibit KIF2C kinesin activity
- EC50 (KIF2C; concentration that inhibits 50% of KIF2C activity): < 10 µM
- intracellular microtubule distribution phenotype (in words) [3]: tubulin aggregation phenotype was not detected

- IC50 (4T1 R8 cells; [8]): 6.1 nM
- IC50 (4T1 R8 cells; [9]): 1120 nM
- IC50 (4T1 R8 cells; [10]): 157 nM
- IC50 (4T1 R4 cells; [8]): 6.4 nM
- IC50 (4T1 R4 cells; [9]): 1540 nM
- IC50 (4T1 R4 cells; [10]): 217 nM
- IC50 (4T1 S1 cells [7]): 0.062 µM
Structure (SMILES): CC(=O)O[C@H]1C(=O)[C@@]2(C)[C@H]([C@H](OC(=O)c3ccccc3)[C@]3(O)C[C@H](OC(=O)[C@H](O)[C@@H](NC(=O)c4ccccc4)c4ccccc4)C(C)=C1C3(C)C)[C@]1(OC(C)=O)CO[C@@H]1C[C@@H]2O [Paclitaxel, paclitaxel]
- tumor growth inhibition (4T1 R4): 41.7%
- suppression of colony formation (4T1 S1 cells [4]): 80%
- cells died in mitosis (4T1 S1 cells [5]): Approximately 40%
- increase in chemoresistance (MDA-MB-231 R): 2.5 fold
- tumor growth inhibition (4T1 cells [6]): 31.3%
- intracellular microtubule distribution phenotype (in words) [3]: significant accumulation of bundled microtubules at the cell periphery
- increase in chemoresistance (4T1 R cells): 11.8 fold
